Source: PubChem BioAssay (NCI)
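The compound was tested at five concentrations on cells cultured in 96-well plates, with a 48-hour exposure period. TGI: concentration producing complete growth inhibition.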

Legend:
Test in all cases: growth of human tumour cells (NCI), 48 h
SN12C renal = system: SN12C renal
MCF7 breast = system: MCF7 breast
DU-145 prostate = system: DU-145 prostate
SK-MEL-28 melanoma = system: SK-MEL-28 melanoma
M14 melanoma = system: M14 melanoma
NCI/ADR-RES ovarian = system: NCI/ADR-RES ovarian
U251 CNS = system: U251 CNS
UACC-62 melanoma = system: UACC-62 melanoma
COLO 205 colon = system: COLO 205 colon
SR leukemia = system: SR leukemia
LOX IMVI melanoma = system: LOX IMVI melanoma
SNB-75 CNS = system: SNB-75 CNS
MDA-MB-435 = system: MDA-MB-435
SK-MEL-5 melanoma = system: SK-MEL-5 melanoma
SF-295 CNS = system: SF-295 CNS
OVCAR-5 ovarian = system: OVCAR-5 ovarian
UACC-257 melanoma = system: UACC-257 melanoma
NCI-H460 lung = system: NCI-H460 lung
OVCAR-8 ovarian = system: OVCAR-8 ovarian
A549 NSCLC = system: A549 NSCLC
RPMI-8226 leukemia = system: RPMI-8226 leukemia
HOP-92 NSCLC = system: HOP-92 NSCLC
K-562 leukemia = system: K-562 leukemia
SK-OV-3 ovarian = system: SK-OV-3 ovarian
SK-MEL-2 melanoma = system: SK-MEL-2 melanoma
HS 578T breast = system: HS 578T breast
KM12 colon = system: KM12 colon
NCI-H23 lung = system: NCI-H23 lung
MOLT-4 leukemia = system: MOLT-4 leukemia
CCRF-CEM leukemia = system: CCRF-CEM leukemia
SF-268 CNS = system: SF-268 CNS
MDA-N = system: MDA-N
OVCAR-3 ovarian = system: OVCAR-3 ovarian
IGROV1 ovarian = system: IGROV1 ovarian
BT-549 breast = system: BT-549 breast
UO-31 renal = system: UO-31 renal
PC-3 prostate = system: PC-3 prostate
SW-620 colon = system: SW-620 colon
MDA-MB-231 breast = system: MDA-MB-231 breast
SF-539 CNS = system: SF-539 CNS
ACHN renal = system: ACHN renal
HL-60(TB) leukemia = system: HL-60(TB) leukemia
HCT-116 colon = system: HCT-116 colon
CAKI-1 renal = system: CAKI-1 renal
HT29 colon = system: HT29 colon
SNB-19 CNS = system: SNB-19 CNS
OVCAR-4 ovarian = system: OVCAR-4 ovarian
786-0 renal = system: 786-0 renal
HCT-15 colon = system: HCT-15 colon
HOP-62 NSCLC = system: HOP-62 NSCLC

Question: What does the source list for `COc1ccc(-c2nc3ncccn3c2-c2ccc(S(C)=O)cc2)cc1` (stereo not given)?
Answer: TGI (SN12C renal): > 100 µM; TGI (MCF7 breast): > 100 µM; TGI (DU-145 prostate): > 100 µM; TGI (SK-MEL-28 melanoma): > 100 µM; TGI (M14 melanoma): > 100 µM; TGI (NCI/ADR-RES ovarian): > 100 µM; TGI (U251 CNS): > 100 µM; TGI (UACC-62 melanoma): > 100 µM; TGI (COLO 205 colon): > 100 µM; TGI (SR leukemia): > 100 µM; TGI (LOX IMVI melanoma): > 100 µM; TGI (SNB-75 CNS): > 100 µM; TGI (MDA-MB-435): 53.8 µM; TGI (SK-MEL-5 melanoma): > 100 µM; TGI (SF-295 CNS): > 100 µM; TGI (OVCAR-5 ovarian): > 100 µM; TGI (UACC-257 melanoma): > 100 µM; TGI (NCI-H460 lung): > 100 µM; TGI (OVCAR-8 ovarian): > 100 µM; TGI (A549 NSCLC): > 100 µM; TGI (RPMI-8226 leukemia): > 100 µM; TGI (HOP-92 NSCLC): > 100 µM; TGI (K-562 leukemia): > 100 µM; TGI (SK-OV-3 ovarian): > 100 µM; TGI (SK-MEL-2 melanoma): > 100 µM; TGI (HS 578T breast): > 100 µM; TGI (KM12 colon): > 100 µM; TGI (NCI-H23 lung): > 100 µM; TGI (MOLT-4 leukemia): > 100 µM; TGI (CCRF-CEM leukemia): > 100 µM; TGI (SF-268 CNS): > 100 µM; TGI (MDA-N): > 100 µM; TGI (OVCAR-3 ovarian): > 100 µM; TGI (IGROV1 ovarian): > 100 µM; TGI (BT-549 breast): > 100 µM; TGI (UO-31 renal): > 100 µM; TGI (PC-3 prostate): > 100 µM; TGI (SW-620 colon): > 100 µM; TGI (MDA-MB-231 breast): > 100 µM; TGI (SF-539 CNS): > 100 µM; TGI (ACHN renal): > 100 µM; TGI (HL-60(TB) leukemia): > 100 µM; TGI (HCT-116 colon): > 100 µM; TGI (CAKI-1 renal): 65.4 µM; TGI (HT29 colon): > 100 µM; TGI (SNB-19 CNS): > 100 µM; TGI (OVCAR-4 ovarian): > 100 µM; TGI (786-0 renal): > 100 µM; TGI (HCT-15 colon): > 100 µM; TGI (HOP-62 NSCLC): > 100 µM
